Source: ChEMBL document CHEMBL1123371, “5-HT1 and 5-HT2 binding characteristics of some quipazine analogues” (J Med Chem, 1986)

Legend:
Rattus norvegicus = test: Stimulus generalization studies in TFMPP trained animals and the number of animals responding /number to receive dose of drug was determined at dose of 1.0 mg/kg; 10/10; format: functional
[1] = Displacement of [3H]5-HT from 5-hydroxytryptamine 1 receptor of rat cortical membrane homogenates
[2] = biological target: Serotonin 2 (5-HT2) receptor (Rattus norvegicus, UniProt P30994+P08909+P14842); test: Displacement of [3H]ketanserin from 5-hydroxytryptamine 2 receptor of rat cortical membrane homogenates

With `COc1cc(CC(C)N)c(OC)cc1C` (stereo not drawn) [DOM] as the molecule, how does the Activity (Rattus norvegicus) read?
The Activity was 10.

Which Ki [1] does the source give for `CCCN(CCC)c1ccc2ccccc2n1` here?
Its Ki is 25 µM.

What about the Ki [2] of the same molecule?
The Ki was 50 µM.

With `Nc1cnc2ccccc2c1` as the molecule, how does the Ki [1] read?
The Ki was 56 µM.

And the Ki [2]?
The Ki was greater than 300 µM.

For `COc1cccc2ccc(N3CCNCC3)nc12`, which Ki [1] is on record?
Its Ki is 0.415 µM.

What about the Ki [2] of the same molecule?
The Ki was 0.31 µM.

What does the source list for `NC1CCc2ccccc2C1` (stereo not drawn)?
Ki [1]: 0.38 µM; Ki [2]: 11.1 µM

For `c1ccc2nc(N3CCNCC3)ccc2c1` [QUIPAZINE], which Ki [1] is on record?
The Ki was 0.23 µM.

And the Ki [2]?
Its Ki is 0.23 µM.

Which Ki [1] does the source give for `CCCN(CCC)c1ccc2cccc(OC)c2n1` here?
The Ki was 45 µM.

And the Ki [2]?
Its Ki is 50 µM.
